Measurements as given in US11084826B2, “RSV antiviral pyrazolo- and triazolo-pyrimidine compounds” (Janssen Sciences Ireland Unlimited Company, priority 2015, dated 2021).

Columns and labels:
[1] = Cytotoxicity in HeLa cells, ATP content measured with the ATPlite kit; type: cell-based; conditions: human, TOX HELA pCC50
rgRSV224 virus = assay: Antiviral activity: inhibition of rgRSV224 (GFP-expressing RSV) replication in HeLa cells, GFP expression read-out; type: cell-based, respiratory syncytial virus (RSV); conditions: human respiratory syncytial virus, HeLa, read-out: RSV HELA pEC50, rgRSV224 virus (MOI=1) in HeLa cells, GFP read-out (converted)
Procedure, shortened: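 EC50 is the 50% inhibitory concentration for GFP expression, read by laser microscopy three days after rgRSV224 infection (MOI=1) of HeLa cells (3,000/well). Compounds were tested as 9 serial 4-fold dilutions at 0.05% DMSO, and cells were incubated at 37° C under 5% CO2.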

SMILES | CC50 at 3 days [1] [nM] | melting point [°C] | EC50 (rgRSV224 virus) [nM]
CCc1cc(C(=O)N2CCCCC[C@H]2C)nc2cc(-c3ccc(C4CC=C(C(=O)O)CC4)cc3F)nn12 (mixture of isomers) [Compound F69] | > 25100 | 176.26 | 195
CCc1cc(C(=O)N2CCCCCC2C)nc2c(F)c(-c3ccc(C(N)=O)cc3F)nn12 (stereo not drawn) [Compound J1] | > 25100 | 173 | 148
CCc1cc(C(=O)N2CCCCCC2C)nc2nc(-c3ccc(NC(=O)C4CC4)cc3F)nn12 (stereo not drawn) [Compound T1] | > 100000 | 210 to 215 | 550
CCc1cc(C(=O)N2CCCCC[C@H]2C)nc2cc(-c3ccc(-n4ccc(C(=O)O)n4)cc3F)nn12 [Compound W3] | 60300 | 207.63 | 107
C[C@@H]1CCCCCN1C(=O)c1cc(C2CCC2)n2nc(-c3ccc(-n4cc(C(=O)O)cn4)cc3F)cc2n1 [Compound W9] | 51300 | 142.16 | 46.8
CNc1cc(C(=O)N2CCCCCC2C)nc2cc(-c3ccc(C(N)=O)cc3F)nn12 (stereo not drawn) [Compound I29] | > 25100 | 179 to 181 | 295
C[C@@H]1CCCCCN1C(=O)c1cc(C2CCC2)n2nc(-c3ccc4c(c3F)OCC(C(=O)O)=C4)cc2n1 [Compound F39] | 44700 | 230.94 | 38.9
CCc1cc(C(=O)N2CCCCCC2C)nc2cc(-c3ccc(NC(=S)NC4CC4)cc3F)nn12 (stereo not drawn) [Compound B14] | > 25100 | 220 to 222 | 437
CCc1cc(C(=O)N2CCn3cccc3C2C)nc2cc(-c3ccc(C(N)=O)cc3F)nn12 (stereo not drawn) [Compound I35] | > 25100 | 242 | 43.7
CCc1cc(C(=O)N2CCCCC[C@H]2C)nc2cc(-c3ccc4c(c3F)OC[C@@H](C(=O)O)C4)nn12 (racemic) [Compound F65] | > 100000 | 186.2 | 141
CCc1cc(C(=O)N2CCCCC[C@H]2C)nc2cc(-c3ccc4ccc(C(=O)O)cc4c3F)nn12 [Compound F36] | > 100000 | 274.48 | 46.8
CCc1cc(C(=O)N2CCCCC2C)nc2cc(-c3ccc(NC(=O)NCC4CCCO4)cc3)nn12 (stereo not drawn) [Compound B7] | > 100000 | 175 to 180 | 631
CCc1cc(C(=O)N2CCCCCC2C)nc2cc(-c3ccc(N4C(=O)CCC4=O)cc3F)nn12 (stereo not drawn) [Compound E26] | > 25100 | 190 to 195 | 407
CCc1cc(C(=O)N2CCCCCC2C)nc2cc(-c3ccc(N/C(=N/C#N)NC4CC4)cc3F)nn12 (stereo not drawn) [Compound B17] | > 25100 | 225 to 230 | 407
CCc1cc(C(=O)N2CCCCCN2C)nc2cc(-c3ccc(-c4ccc(C(=O)O)cn4)cc3F)nn12 [Compound F35] | > 100000 | 268.78 | 162
CCc1cc(C(=O)N2CCCCC[C@H]2C)nc2cc(-c3ccc(-c4ncc(C(=O)O)s4)cc3F)nn12 (racemic) [Compound F43] | 42700 | 177.53 | 61.7
C[C@@H]1c2ccccc2CCN1C(=O)c1cc(C2CC2)n2nc(-c3ccc(C4C[C@H]4C(=O)O)cc3F)cc2n1 (single isomer, unassigned) [Compound O5] | 55000 | 222.18 | 11
CCc1cc(C(=O)N2CCc3ccccc3C2C)nc2cc(-c3ccc(C(=O)NC(C)C(=O)O)cc3F)nn12 (stereo not drawn) [Compound L11] | > 25100 | 165 to 170 | 631
CCc1cc(C(=O)N2CCCCCC2C)nc2cc(-c3ccc(NC(=O)OCCO)cc3F)nn12 (stereo not drawn) [Compound C4] | > 25100 | 175 to 180 | 110
CCc1cc(C(=O)N2CCCC3(CC=CC3)C2C)nc2cc(-c3ccc(/C=C/C(=O)O)cc3F)nn12 (racemic) [Compound M35] | 42700 | 206.72 | 200

SMILES | CC50 at 3 days [1] [nM] | melting point [°C] | EC50 (rgRSV224 virus) [nM]
CCCC(=O)Nc1ccc(-c2cc3nc(C(=O)N4CCCCCC4C)cc(CC)n3n2)c(F)c1 (stereo not drawn) [Compound E4] | > 25100 | 175 to 180 | 182
CCc1cc(C(=O)N2CCn3cccc3C2C)nc2cc(-c3ccc(C(=O)O)cc3F)nn12 (stereo not drawn) [Compound K9] | > 25100 | 155 to 160 | 525
CC1CCCCCN1C(=O)c1cc(N(C)C2CCCCC2)n2nc(-c3ccc(NC(=O)NCC4CCCO4)cc3)cc2n1 (stereo not drawn) [Compound B12] | > 100000 | 181 to 182 | 191
CCc1cc(C(=O)N2CCCCCC2C)nc2cc(-c3ccc(NC(=O)c4nccn4C)cc3)nn12 (stereo not drawn) [Compound E22] | 21900 | 196 to 198 | 1700
CC1c2ccsc2CCN1C(=O)c1cc(C2CC2)n2nc(-c3ccc(-n4cc(C(=O)O)cn4)cc3F)cc2n1 (stereo not drawn) [Compound W41] | > 25100 | 257.83 | 13.2
CCc1cc(C(=O)N2CCCCCC2C)nc2cc(-c3ccc(NC(=O)C4CC4)cc3C)nn12 (stereo not drawn) [Compound E16] | > 10000 | 223 | 1320
CCc1cc(C(=O)N2CCCCCC2C)nc2cc(-c3ccc(S(N)(=O)=O)cc3F)nn12 (stereo not drawn) [Compound P2] | > 25100 | 229 | 646
CC(C)=Cc1cc(C(=O)N2CCCCC[C@H]2C)nc2cc(-c3ccc(N4CC[C@H](C(=O)O)C4)cc3F)nn12 [Compound W15] | 57500 | 189.89 | 51.3
CCc1cc(C(=O)N2CCCCCC2C)nc2cc(-c3ccc(NC(=O)CCC(=O)NC)cc3)nn12 (stereo not drawn) [Compound E29] | > 25100 | 204 to 205 | 457
CCc1cc(C(=O)N2CCCCC[C@H]2C)nc2cc(-c3ccc(N4CC[C@](C)(C(=O)O)C4)cc3F)nn12 [Compound W49] | 53700 | 179.2 | 43.7
CCc1cc(C(=O)N2CCCCCC2C)nc2cc(-c3ccc(NC(=O)C4(C)CC4)cc3F)nn12 (stereo not drawn) [Compound E8] | > 25100 | 225 to 230 | 468
CCc1cc(C(=O)N2CCCCCC2C)nc2cc(-c3ccc(C(=O)NNCC4CC4)cc3F)nn12 (stereo not drawn) [Compound L9] | > 25100 | 140 | 372
CCc1cc(C(=O)N2CCCCCC2C)nc2nc(-c3ccc(C(N)=O)cc3F)nn12 (stereo not drawn) [Compound V1] | > 25100 | 215 to 220 | 1910
C[C@@H]1c2ccsc2CCN1C(=O)c1cc(C2(C)CC2)n2nc(-c3ccc([C@@H]4C[C@H]4C(=O)O)cc3F)cc2n1 [Compound O21] | 55000 | 207.61 | 11
C[C@@H]1CCCCCN1C(=O)c1cc(C2CCC2)n2nc(-c3ccc(C4C[C@H]4C(=O)O)cc3F)cc2n1 (mixture of isomers) [Compound O11] | 47900 | 249.19 | 30.2
CCc1cc(C(=O)N2CCc3sccc3C2C)nc2cc(-c3ccc(C4C[C@H]4C(=O)O)cc3F)nn12 (single isomer, unassigned) [Compound O22] | 47900 | 228.98 | 6.92
CCCNC(=O)c1ccc(-c2cc3nc(C(=O)N4CCCCCC4C)cc(CC)n3n2)c(F)c1 (stereo not drawn) [Compound L3] | > 25100 | 188 | 240
CCc1cc(C(=O)N2CCc3sccc3C2C)nc2cc(-c3ccc(N4CC[C@H](C(=O)O)C4)cc3F)nn12 (single isomer, unassigned) [Compound W43] | 49000 | 252.56 | 2.75
CC(C)Cc1cc(C(=O)N2CCCCC[C@H]2C)nc2cc(-c3cccc(/C=C/C(=O)O)c3F)nn12 [Compound M29] | 67600 | 176 | 38.9
